In article PMC9305538 (Chembiochem, 2022):
Where two headings read alike, the source gives them in different places.

Tests used:
FDHC23S+AzoRo [1] = details: 1 mM NAD+; 50 mM phosphate pH 7; 25 °C; apparent; FDH part
FDHC23S+AzoRo [2] = details: 150 μM NADH; 50 μM FMN; 50 mM phosphate pH 7; 25 °C; apparent; AzoRo part
FDHC23S+AzoRo [3] = details: 150 μM NADH; 50 μM FMN; 50 mM phosphate pH 7; 25 °C; apparent; AzoRo part; remark: listed apart in the source

Compound `O=CO` [Formate] has a Km (FDHC23S+AzoRo [1]) of 48900 ± 4880 µM.
`CN(C)c1ccc(/N=N/c2ccccc2C(=O)O)cc1` [compound 1, methyl red] gave a Km (FDHC23S+AzoRo [2]) of 73.9 ± 47.5 µM.
`CC(=O)Nc1ccc(S(=O)(=O)O)c2cc(S(=O)(=O)O)c(N=Nc3ccc(N=Nc4ccc(S(=O)(=O)O)cc4)c4ccc(S(=O)(=O)O)cc34)c(O)c12` [compound 5, Brilliant Black BN] gave a Km (FDHC23S+AzoRo [3]) of 6.01 ± 1.39 µM.
